The values below are quoted from earlier work in patent US20080261937A1, “PHARMACEUTICAL COMPOSITIONS AND METHOD FOR TREATING PEDIATRIC HYPOGONADISM” (priority 2007, published 2008).

SMILES strings stand for the structures.

As for `C[C@]12CC[C@H]3[C@@H](CCC4=CC(=O)CC[C@@]43C)[C@@H]1CC[C@@H]2O` [testosterone], the “bound to proteins in the blood” value (circulating testosterone) is reported as 98%. Also, under “in males”, the “share bound weakly to albumin” value is listed as 60% and the “share of binding to sex hormone binding globulin (SHBG)” value is given as “approximately 40%”.
